Experimental findings from patent US20250003877A1, “Silyl Bridged Dyes” (priority 2021, published 2025) are described below.

For this data set the following is noted: for brighter than dimethylsilyl counterpart: vs 001 (for 002, 009) or vs 016 (for 017).
Where [1] appears, read: spirolactone dyes, table title says PBS, text (b560-b564) says maximal ε when ring-opened in EtOH/0.1% TFA.

SMILES strings stand for the structures. Read-outs that look alike come from different tables or passages of the source.

In the case of `Cc1ccccc1C1=C2C=CC(=[N+](C)C)C=C2[Si](c2ccccc2)(c2ccccc2)c2cc(N(C)C)ccc21` [Compound 007, N-(7-(Dimethylamino)-5,5-diphenyl-10-(o-tolyl)dibenzo[b,e]silin-3(5H)-ylidene)-N-methylmethanaminium], where the note is “PBS”, the “Brightness (ϕ × ε)” value is given as 41,952, the “Em (nm)” value is given as 677 nm, the “Ex (nm)” value stood at 663 nm and the “ε (M^−1 cm^−1)” value is 120,900 M^−1 cm^−1. Also, where the note is “PBS, pH 7.4”, the “ϕ (quantum yield)” value amounted to 0.35. Besides, where the note is “vs 001 (for 007) or vs 020 (for 021, 022), excitation and emission”, the “red-shift compared to dimethylsilyl counterpart” value was “approximately 15 nm”.

With `Cc1ccccc1C1=C2C=CC(=[N+]3CCC3)C=C2[Si](C)(C)c2cc(N3CCC3)ccc21` [Compound 024, 1-(7-(Azetidin-l-yl)-5,5-dimethyl-10-(o-tolyl)dibenzo[b,e]silin-3(5H)-ylidene)azetidin-1-ium, reference compound], for the setting “PBS”, the “Brightness (ϕ × ε)” value was 55,460, the “Em (nm)” value worked out at 663 nm, the “Ex (nm)” value is 649 nm and the “ε (M^−1 cm^−1)” value is 118,000 M^−1 cm^−1. Moreover, the “ϕ (quantum yield)” value (PBS, pH 7.4) was 0.47.

On to `C=C[Si]1(c2ccccc2)C2=CC(=[N+](C)C)C=CC2=C(c2ccccc2C)c2ccc(N(C)C)cc21` (stereo not shown) [Compound 005, N-(7-(Dimethylamino)-5-phenyl-10-(o-tolyl)-5-vinyldibenzo[b,e]silin-3(5H)-ylidene)-N-methylmethanaminium], for which, for the setting “PBS”, the “Brightness (ϕ × ε)” value was 53,499, the “Em (nm)” value was 676 nm, the “Ex (nm)” value was determined as 658 nm and the “ε (M^−1 cm^−1)” value is on record as 150,700 M^−1 cm^−1. In addition, under “PBS, pH 7.4”, the “ϕ (quantum yield)” value worked out at 0.36.

For the compound `CN(C)c1ccc2c(c1)[Si@](C)(CCCSCC(=O)O)c1cc(N(C)C)ccc1[C@@]21OC(=O)c2ccccc21` [Compound 064, 2-((3-((5r,10r)-3,7-Bis(dimethylamino)-5-methyl-3′-oxo-3′H,5H-spiro[dibenzo[b,e]siline-10,1′-isobenzofuran]-5-yl)propyl)thio)acetic acid], where the note is “PBS”, the “Em (nm)” value is 665 nm and the “Ex (nm)” value amounted to 645 nm. The “ϕ (quantum yield)” value (PBS, pH 7.4) is 0.45. In addition, the “ε (M^−1 cm^−1)” value under setting [1] is 160,400 M^−1 cm^−1.

Consider `CN(C)c1ccc2c(c1)[Si@](C)(CCCI)c1cc(N(C)C)ccc1[C@@]21OC(=O)c2ccccc21` [Compound 048, (5r,10r)-3,7-Bis(dimethylamino)-5-(3-iodopropyl)-5-methyl-3′H,5H-spiro[dibenzo[b,e]siline-10,1′-isobenzofuran]-3′-one], for which, under “PBS”, the “Em (nm)” value is listed as 665 nm and the “Ex (nm)” value is 645 nm. In addition, the “ϕ (quantum yield)” value (PBS, pH 7.4) turned out to be 0.45. For the same compound, the “ε (M^−1 cm^−1)” value under setting [1] was 144,000 M^−1 cm^−1.

For `O=C1OC2(c3ccccc31)c1ccc(N3CCC3)cc1[Si](c1ccccc1)(c1ccccc1)c1cc(N3CCC3)ccc12` [Compound 033, 3,7-Di(azetidin-1-yl)-5,5-diphenyl-3′H,5H-spiro[dibenzo[b,e]siline-10,1′-isobenzofuran]-3′-one], the “extinction coefficient (maximum) in EtOH/0.1% TFA” value (EtOH/0.1% TFA) is reported as 80,000 M−1 cm−1. In addition, under “SDS”, the “Em (nm)” value is 681 nm and the “Ex (nm)” value is reported as 664 nm. In addition, the “extinction coefficient in anhydrous EtOH/0.1% TFA” value (anhydrous EtOH/0.1% TFA) was ~124 000 M−1 cm-1. Moreover, the “ε (M^−1 cm^−1)” value under setting [1] is listed as 80,000 M^−1 cm^−1.

`CCOC(=O)CSCCC[Si@]1(C)c2cc(N(C)C)ccc2[C@]2(OC(=O)c3ccccc32)c2ccc(N(C)C)cc21` [Compound 042, Ethyl 2-((3-((5s,10s)-3,7-bis(dimethylamino)-5-methyl-3′-oxo-3′H,5H-spiro[dibenzo[b,e]siline-10,1′-isobenzofuran]-5-yl)propyl)thio)acetate]: for the setting “PBS”, the “Em (nm)” value is on record as 665 nm and the “Ex (nm)” value worked out at 645 nm. For the same compound, the “ϕ (quantum yield)” value (PBS, pH 7.4) was 0.45. Also, under setting [1], the “ε (M^−1 cm^−1)” value is 145,800 M^−1 cm^−1.

Turning to `Cc1ccccc1C1=C2C=CC(=[N+](C)C)C=C2[Si](C)(CCCCl)c2cc(N(C)C)ccc21` (stereo not shown) [Compound 009, N-(5-(3-Chloropropyl)-7-(dimethylamino)-5-methyl-10-(o-tolyl)dibenzo[b,e]silin-3(5H)-ylidene)-N-methylmethanaminium], for the setting “PBS”, the “Brightness (ϕ × ε)” value is recorded as 64,113, the “Em (nm)” value is recorded as 665 nm, the “Ex (nm)” value worked out at 650 nm and the “ε (M^−1 cm^−1)” value is 180,600 M^−1 cm^−1. Moreover, the “brighter than dimethylsilyl counterpart” value (PBS) was found to be 50%. In addition, the “ϕ (quantum yield)” value (PBS, pH 7.4) came out at 0.36.

Take `Cc1ccccc1C1=c2cc3c(cc2[Si](c2ccccc2)(c2ccccc2)c2cc4c(cc21)CCCN4C)=[N+](C)CCC3` [Compound 018, 1,11-Dimethyl-13,13-diphenyl-6-(o-tolyl)-2,3,4,8,9,10,11,13-octahydrosilino[3,2-g:5,6-g′]diquinolin-1-ium]: under “PBS”, the “Brightness (ϕ × ε)” value is 41,524, the “Em (nm)” value stood at 710 nm, the “Ex (nm)” value turned out to be 690 nm and the “ε (M^−1 cm^−1)” value is 148,300 M^−1 cm^−1. Further, where the note is “PBS, pH 7.4”, the “ϕ (quantum yield)” value is listed as 0.28.

As to `CCCCCCCC[Si]1(CCCCCCCC)C2=CC(=[N+](C)C)C=CC2=C(c2ccccc2C)c2ccc(N(C)C)cc21` [Compound 011, N-(7-(Dimethylamino)-5,5-dioctyl-10-(o-tolyl)dibenzo[b,e]silin-3(5H)-ylidene)-N-methylmethanaminium], for the setting “EtOH”, the “Brightness (ϕ × ε)” value is on record as 89,091; the fluorescence and scatter result was “bright fluorescence and no scatter peak”; the “ε (M^−1 cm^−1)” value was 156,300 M^−1 cm^−1; the “ϕ (quantum yield)” value turned out to be 0.57. Under “PBS”, the “Em (nm)” value was 666 nm, the “Ex (nm)” value stood at 651 nm and the “ε (M^−1 cm^−1)” value is recorded as “low extinction coefficient”. Also, for the setting “PBS, 1 μM concentration”, the Rayleigh scatter result is reported as “pronounced Rayleigh scatter peak”. For the same compound, the “ϕ (quantum yield)” value (PBS, pH 7.4) is 0.18.

Regarding `COc1cccc(OC)c1C1=C2C=CC(=[N+](C)C)C=C2[Si](C)(CCCCl)c2cc(N(C)C)ccc21` (stereo not shown) [Compound 030, N-(5-(3-Chloropropyl)-10-(2,6-dimethoxyphenyl)-7-(dimethylamino)-5-methyldibenzo[b,e]silin-3(5H)-ylidene)-N-methylmethanaminium], where the note is “PBS”, the “Brightness (ϕ × ε)” value is 76,000, the “Em (nm)” value came out at 673 nm, the “Ex (nm)” value was found to be 655 nm and the “ε (M^−1 cm^−1)” value is recorded as 200,000 M^−1 cm^−1. For the setting “PBS, pH 7.4”, the “ϕ (quantum yield)” value is on record as 0.38.

Take `Cc1ccccc1C1=C2C=CC(=[N+](C)C)C=C2[Si](C)(c2cccc(N(C)C)c2)c2cc(N(C)C)ccc21` (stereo not shown) [Compound 008, N-(7-(Dimethylamino)-5-(3-(dimethylamino)phenyl)-5-methyl-10-(o-tolyl)dibenzo[b,e]silin-3(5H)-ylidene)-N-methylmethanaminium]: for the setting “PBS”, the “Brightness (ϕ × ε)” value was 3700, the “Em (nm)” value is reported as 668 nm, the “Ex (nm)” value is on record as 651 nm and the “ε (M^−1 cm^−1)” value is recorded as 154,200 M^−1 cm^−1. Moreover, the “ϕ (quantum yield)” value (PBS, pH 7.4) is 0.02. Further, the quantum yield (pH 3 acetate buffer) is on record as 0.31.

In the case of `Cc1ccccc1C1=C2C=CC(=[N+](C)C)C=C2[Si]2(CCCCC2)c2cc(N(C)C)ccc21` [Compound 014, N-(7-(Dimethylamino)-10-(o-tolyl)-3H-spiro[dibenzo[b,e]siline-5,1′-silinan]-3-ylidene)-N-methylmethanaminium], for the setting “PBS”, the “Brightness (ϕ × ε)” value was 56,610, the “Em (nm)” value is listed as 666 nm, the “Ex (nm)” value is 650 nm and the “ε (M^−1 cm^−1)” value is on record as 170,000 M^−1 cm^−1. The “ϕ (quantum yield)” value (PBS, pH 7.4) is given as 0.33.

On to `C=C[Si]1(C=C)C2=CC(=[N+]3CCC3)C=CC2=C(c2ccccc2C)c2ccc(N3CCC3)cc21` [Compound 026, 1-(7-(Azetidin-1-yl)-10-(o-tolyl)-5,5-divinyldibenzo[b,e]silin-3(5H)-ylidene)azetidin-1-ium], for which, for the setting “PBS”, the “Brightness (ϕ × ε)” value is 48,268, the “Em (nm)” value was determined as 673 nm, the “Ex (nm)” value stood at 658 nm and the “ε (M^−1 cm^−1)” value was 109,700 M^−1 cm^−1. Also, for the setting “PBS, pH 7.4”, the “ϕ (quantum yield)” value is 0.44.

As to `C=C[Si]1(C=C)C2=CC(=[N+](C)C)C=CC2=C(c2ccccc2C)c2ccc(N(C)C)cc21` [Compound 006, N-(7-(Dimethylamino)-10-(o-tolyl)-5,5-divinyldibenzo[b,e]silin-3(5H)-ylidene)-N-methylmethanaminium], for the setting “PBS”, the “Brightness (ϕ × ε)” value was 56,671, the “Em (nm)” value came out at 672 nm, the “Ex (nm)” value was 657 nm and the “ε (M^−1 cm^−1)” value is given as 158,300 M^−1 cm^−1. In addition, the “ϕ (quantum yield)” value (PBS, pH 7.4) was found to be 0.36.

As for `CN(C)c1ccc2c(c1)[Si@](C)(CCCN=[N+]=[N-])c1cc(N(C)C)ccc1[C@]21OC(=O)c2ccccc21` [Compound 053, (5s,10s)-5-(3-Azidopropyl)-3,7-bis(dimethylamino)-5-methyl-3′H,5H-spiro[dibenzo[b,e]siline-10,1′-isobenzofuran]-3′-one], under “PBS”, the “Em (nm)” value was determined as 666 nm and the “Ex (nm)” value worked out at 645 nm. Also, the “ϕ (quantum yield)” value (PBS, pH 7.4) is 0.43. For the same compound, the “ε (M^−1 cm^−1)” value under setting [1] is listed as 206,700 M^−1 cm^−1.

As to `Cc1ccccc1C1=c2cc3c(cc2[Si](C)(CCCCl)c2cc4c(cc21)CCN4C)=[N+](C)CC3` (stereo not shown) [Compound 023, 11-(3-Chloropropyl)-1,9,11-trimethyl-5-(o-tolyl)-2,3,7,8,9,11-hexahydrosilino[3,2-f:5,6-f]diindol-1-ium], for the setting “PBS”, the “Brightness (ϕ × ε)” value is given as 21,947, the “Em (nm)” value is on record as 717 nm, the “Ex (nm)” value worked out at 693 nm and the “ε (M^−1 cm^−1)” value is 129,100 M^−1 cm^−1. Moreover, the “ϕ (quantum yield)” value (PBS, pH 7.4) worked out at 0.17.

Take `CC[Si]1(CC)C2=CC(=[N+](C)C)C=CC2=C(c2ccccc2C)c2ccc(N(C)C)cc21` [Compound 002, N-(7-(Dimethylamino)-5,5-diethyl-10-(o-tolyl)dibenzo[b,e]silin-3(5H)-ylidene)-N-methylmethanaminium]: for the setting “PBS”, the “Brightness (ϕ × ε)” value is given as 58,540, the “Em (nm)” value was 664 nm, the “Ex (nm)” value came out at 648 nm and the “ε (M^−1 cm^−1)” value is listed as 164,900 M^−1 cm^−1. In addition, for the setting “PBS”, the “brighter than dimethylsilyl counterpart” value is recorded as 30%. Also, the “ϕ (quantum yield)” value (PBS, pH 7.4) is 0.36.
